The source of these data is publication PMC7136079 (Translational and Clinical Pharmacology, 2020).

For data set [1] the following is noted: cited from earlier work; for within-subject variability (coefficient of variation) of Cmax: ref unpublished previous study results.

SMILES strings stand for the structures. Like-named read-outs stand apart in the source and are kept apart here.

In the case of `N[C@@H](CC(=O)N1CCc2c(nc(C(F)(F)F)nc2C(F)(F)F)C1)CN1CC(F)(F)CCC1=O` [Gemigliptin], where the note is “fed state, ratio of the FDC to the loose combination”, the “AUCinf geometric mean ratio (90% CI)” value is 0.9940 (0.9691–1.0195). Further, the Tmax result in data set [1] (50 mg) is “approximately 2 hours”. Further, the “terminal half-life (t1/2)” value in data set [1] is 17.1 h. Moreover, the “time at which maximum concentration (Cmax) was attained” value in data set [1] was 2 h. The pharmacokinetic dose linearity result in data set [1] (dose range of 50–400 mg) is recorded as “linearity”. For the same molecule, the “within-subject variability (coefficient of variation) of Cmax” value is listed as “approximately 23.4%” in data set [1] (fasted state, 2016) and “approximately 20.4%” in data set [1] (fed state, 2015).

For `CN(C)C(=N)N=C(N)N` [Metformin], the Tmax reads like this: (fed state (high fat meal), given as loose combination gemigliptin 50 mg + metformin XR 1,000 mg, n = 30, median [minimum–maximum]) 6.00 [4.00–8.03] h; (human, plasma, oral) 6.04 h. For the same molecule, the “time to reach Cmax” value in data set [1] (extended-release formulations) is 4 to 8 h.
